US20170122958A1, “Enzymes Functional Probes” (University of Dundee, priority 2013, published 2017)

Target: T1, double Leu(94,387)/Ala mutant of GFP-Brd4 (Homo sapiens, UniProt O60885, L387A/L94A)
T1 construct: U2OS cells transfected with full-length human GFP-brd4; expressed in transfected cells; host or cells: U2OS human osteosarcoma cells
Test: FRAP in transfected U2OS cells
Type: cell-based
Details: double Leu(94,387)/Ala mutant GFP-Brd4, 1 μM compound
Procedure: To establish whether selectivity could also be observed within cells, we developed fluorescence recovery after photobleaching (FRAP) assays using full length human GFP-BRD4 transfected into human osteosarcoma cells (U2OS). […] The data shown represent the mean±SEM (n=35-50). Statistical significance was determined by one-tailed t tests: *<0.05; **P<0.01; ***P<0.001; n.s. not significant.
Fluorescence recovery after photobleaching (FRAP) experiments were performed in human osteosarcoma U2OS cells transfected with mammalian expression constructs encoding wild type and mutant GFP chimeras of Brd4. Cells were cultured in DMEM (Gibco) supplemented with fetal bovine serum, Penicillin/Streptamycin and L-Glutamine. Cells were seeded into glass bottom dishes (Willco) to about 40% confluency and transfected with the constructs using Effectene (QIAGEN) at least 18 h before the experiment. […] FRAP studies were performed using a DeltaVision Core mounted on an Olympus IX70 stand with a 60×1.4NA plan apo objective lens equipped with a heated chamber set to 37° C. and a Quantifiable Laser Module (QLM) with 10 mW 488 nm solid state laser delivering a diffraction limited spot to the centre field of view. […] FRAP data was analysed using the SoftWorX software. It was fitted to a 2-dimensional recovery curve using the method of Axelrod as implemented within the software and half-times of recovery were calculated.

Q: How did the “Fluorescence recovery after photobleaching (recovery time)” value turn out when `CC[C@@H](C(=O)OC)[C@@H]1N=C(c2ccc(Cl)cc2)c2cc(OC)ccc2-n2c(C)nnc21` (racemic) [Compound 11, (+−)-methyl (R)-2-((S)-6-(4-chlorophenyl)-8-methoxy-1-methyl-4H-benzo[f][1,2,4]triazolo[4,3-a][1,4]diazepin-4-yl)butanoate] was run?
A: recovery times comparable to the iBET control
